Assay: in vitro
Details: human, hela cells, % viability

| Compound | viability at 28.5 h, 10 µM |
| --- | --- |
| CC(=O)Nc1ccc(C(=O)NCc2ccc(OCC(F)(F)F)cc2)cc1 [CBK305732] | 98% |
| O=C(NC(NC1CCS(=O)(=O)C1)C(Cl)(Cl)Cl)c1ccc(Br)cc1 (stereo not drawn) [CBK261091] | 98.2% |
| O=C(CCc1ccccc1)NNC(=O)C1CC1c1ccccc1 (stereo not drawn) [CBK261292] | 114% |
| OCC1CCCN1c1nccnc1-c1ccoc1 (stereo not drawn) [CBK089057] | 105% |
| CCC(C(=O)Nc1sc2c(c1C(N)=O)CCCCCC2)c1ccccc1 (stereo not drawn) [CBK265383] | 85.8% |
| Cc1nn(C)c(N2CCNCC2)c1NC(=O)C1=CC(=O)CC(C)(C)O1 [CBK050362T] | 99.9% |
| CCCCc1ccc(NC(=O)Nc2ccc3ccc(Cl)nc3n2)cc1 [CBK063259] | 114% |
| Cc1ccc(C)n1-c1cccc(C(=O)N2CCn3cnnc3C2)c1 [CBK283646] | 96.2% |
| COc1cccc(C(=O)NNC(=O)Nc2ccccc2)c1 [CBK261608] | 91.8% |
| O=C(Cc1ccccn1)NC(Cc1cccs1)c1ccccn1 (stereo not drawn) [CBK282243] | 93.1% |
| COc1ccccc1-c1nc(C2CCCN2C(=O)N[C@@H](C)c2ccccc2)n2ccccc12 (stereo partly drawn) [CBK046625] | 109% |
| COc1ccc(C(=O)N[C@H]2C[C@H]3C(=O)NC[C@@H](CCC(=O)N4CCN(C)CC4)N3C2)cc1 [CBK289016] | 90.6% |
| COc1ccc(NC(=O)N[C@H]2[C@H](O)[C@@H](N3CCOCC3)[C@@H]3OC[C@H]2O3)cc1 [CBK288820] | 101% |
| COc1ccc(CNCCN)cc1 [CBK013010] | 98.2% |
| CS(=O)(=O)c1ccc(-c2cnc(N)c(NCCCO)n2)cc1 [CBK063587] | 87.3% |
| OCCNc1nccnc1Cl [CBK089793] | 114% |
| O=C(N/N=C/c1ccc(N2N=C(c3ccc(Cl)cc3)CC2c2ccc(Cl)cc2)cc1)c1cccnc1 (stereo not drawn) [CBK262494] | 103% |
| CN(C)CCN(C)C(=O)c1ccc(-c2cccc(OC(F)(F)F)c2)nc1N(C)C [CBK106081] | 90.3% |
| FC(F)(F)c1ccc(CN2CCN(c3nccnc3OCc3cccnc3)CC2)cc1 [CBK083133T] | 101% |
| Cc1ccc(CNC(=O)CSc2nc(N)n[nH]2)cc1 [CBK267914] | 103% |
| COC(=O)C1(Cc2cc(-c3ccccc3F)no2)CCOCC1 [CBK285182] | 87.8% |
| CC(O)Cc1nnc(SCC(=O)c2ccc([N+](=O)[O-])cc2)n1-c1ccccc1 (stereo not drawn) [CBK267389] | 81.1% |
| CC(N)C1CCCCN1S(=O)(=O)c1ccc(OCc2ncnn2C)cc1 (stereo not drawn) [CBK304272C] | 94.3% |

| Compound | viability at 28.5 h, 10 µM |
| --- | --- |
| O=C(CO)N1CC2(CCN(Cc3ccc(OC(F)(F)F)cc3)CC2)c2ccccc21 [CBK131493] | 106% |
| O=C(NCc1ccccc1Cl)N(Cc1cccc(Cl)c1)CC1CCNCC1 [CBK049762] | 80.4% |
| COC(=O)[C@@H](C)NC(=O)[C@H]1CN(C(=O)Nc2ccccc2)CCN1C(C)=O [CBK289627] | 86.3% |
| Cc1c(C(=O)O)c(-c2ccc(Cl)cc2)cn1CCO [CBK286959] | 87% |
| O=C(c1cc(-c2ccncc2)nc2ccc(Cl)cc12)N1CCN(C/C=C/c2ccccc2)CC1 [CBK267754] | 106% |
| COc1ccc(N2C(=O)CC(n3c(CCCCO)nc4ccccc43)C2=O)cc1 (stereo not drawn) [CBK268895] | 107% |
| CC(Sc1nc2ccccc2c(=O)n1C)C(=O)N1CCOCC1 (stereo not drawn) [CBK305031] | 88.5% |
| COc1ccccc1CN(C)C(C)=O [CBK024120] | 118% |
| Cc1cccc(NCC2CCN(Cc3cc(=O)n4ccccc4n3)C2)n1 (stereo not drawn) [CBK305756] | 100% |
| Cc1ccc(-c2cc(C(=O)NCc3ccc(F)cc3Cl)n[nH]2)cc1 [CBK288102] | 85.6% |
| CS(=O)(=O)c1ccc(-c2c[nH]c([C@@H]3COCCN3Cc3ccc(C(=O)O)cc3)n2)cc1 [CBK289306] | 97.3% |
| Cc1nc(-c2ccco2)nc2sc(C(=O)NCc3nnc4ccccn34)c(C)c12 [CBK297773] | 107% |
| O=C(/C=C/c1cccc2ccccc12)N1CCCCCC1 [CBK264092] | 111% |
| COc1cc(C(=O)N2CCC3(CC2)NC(=O)c2cc(Br)ccc2O3)ccc1C [CBK149464] | 92.3% |
| CCc1ccccc1NC(=S)Nc1cccc(C)n1 [CBK288415] | 103% |
| COc1ccc(OC)c(NC(=O)c2cnc3scc(C)n3c2=O)c1 [CBK287462] | 90.5% |
| CN(Cc1ccncn1)C(=O)c1cn(CC2CCCO2)nn1 (stereo not drawn) [CBK307081] | 108% |
| Cc1c(F)cccc1CNC1CCC(NC(=O)OC(C)(C)C)CC1 (stereo not drawn) [CBK056691] | 85% |
| COC(=O)c1ccc(CSc2nnc(-n3sc4ccccc4c3=O)s2)cc1 [CBK116502] | 90.6% |
| CN(C)CCNC(=O)Cn1c(-c2ccc(F)cc2)cc2cccnc21 [CBK284820] | 97.7% |
| Oc1ccc(Br)cc1CN1CCN(Cc2cccc3ccccc23)CC1 [CBK263662] | 87% |
| Nc1nc2c(ncn2[C@H]2C[C@@H](O)[C@@H](CO)O2)c(=S)[nH]1 [CBK201213] | 59.3% |
| Cc1c(C(=O)N(C)C2CCNC2)nnn1-c1ccc2ncccc2c1 (stereo not drawn) [CBK304698] | 94.5% |

| Compound | viability at 28.5 h, 10 µM |
| --- | --- |
| CCN(CC)Cc1nccn1-c1ccc([N+](=O)[O-])cc1C(=O)c1ccccc1Cl [CBK011562F] | 105% |
| CCS(=O)(=O)N1CCN(C(=O)c2ccc3nc(C)c(N(CCOC)Cc4ccc(OC)cc4)n3c2)CC1 [CBK146153] | 98.2% |
| Cc1ccc2nc(SCc3cccc([N+](=O)[O-])c3)nc(C)c2c1 [CBK264370] | 106% |
| Fc1ccc(Sc2nc3ccccc3nc2N2CCCC2)cc1 [CBK089543] | 101% |
| O=C(CSc1ccc(Cl)cc1)Nc1ccc(CN2CCOCC2)cc1 [CBK305855] | 89% |
| O=S(=O)(Nc1nnn[nH]1)c1ccc(Br)cc1C(F)(F)F [CBK062388] | 104% |
| O=C1CC(C(=O)Nc2c(Cl)cccc2Cl)C2(CCCCC2)O1 (stereo not drawn) [CBK058445] | 95.9% |
| Cc1ccc(C(=O)Nc2ccc(C(=O)O)cc2)cc1S(=O)(=O)NCc1ccccc1 [CBK263219] | 101% |
| CCc1cc(Br)ccc1S(=O)(=O)NCCc1cccs1 [CBK045033] | 109% |
| Cc1cccc(C(N)=O)c1O [CBK012294] | 112% |
| Cc1nnc([C@H]2CCN(Cc3ccccc3)C2)o1 [CBK289390] | 114% |
| CC1(C)CC(NC(=O)c2cc(Cn3ccc4ccccc43)[nH]n2)CCO1 (stereo not drawn) [CBK307092] | 87.7% |
| N=C(Nc1nc(=O)cc(CSc2ccc(Cl)cc2)[nH]1)Nc1cccc2ccccc12 [CBK266504] | 98.9% |
| N#Cc1c(O)nsc1Nc1ccc(Cl)cc1 [CBK009446] | 94.9% |
| Sc1nnc(C2CCCC2)n1CC1CCCO1 (stereo not drawn) [CBK288413] | 107% |
| COc1cccc([C@H]2CN(C(C)=O)[C@@H]3CCN(C4CCCC4)C[C@H]23)c1 [CBK283375] | 89.7% |
| CN(C)CCN1C(=O)CCc2ccccc21 [CBK023390C] | 102% |
| Nc1nnc(SCC(=O)NCc2ccc3c(c2)OCO3)s1 [CBK267853] | 101% |
| CC(Nc1nc(N2CCNCC2)nc2ccccc12)c1ccccc1 (stereo not drawn) [CBK266475] | 102% |
| Cn1cncc1C(=O)NCc1ccccc1 [CBK200199] | 96.9% |
| O=C(O)c1ccccc1-c1ccc(-c2cc(C(=O)O)c3cc(F)ccc3n2)o1 [CBK269051] | 98.8% |
| Cc1ccc(C(=O)C2=C(O)C(=O)N(CCCN(C)C)C2c2ccccn2)o1 (stereo not drawn) [CBK269575] | 89.1% |
| Cc1c(C(=O)Nc2ccccn2)sc2nc(-c3ccccc3)cn12 [CBK287501] | 98.3% |

| Compound | viability at 28.5 h, 10 µM |
| --- | --- |
| COc1ccc([C@H]2CN(Cc3ccccc3)[C@@H]3CCN(C(=O)Cc4ccccc4)C[C@H]23)cc1 [CBK286285] | 108% |
| CN(CC1OCCc2ccccc21)C(=O)CCC1CCCO1 (stereo not drawn) [CBK282030] | 87.1% |
| COC(=O)c1c(NC(=O)c2c(C)c(-c3ccc(Cl)cc3Cl)nc3ccccc23)sc2c1CCC(C)C2 (stereo not drawn) [CBK262644] | 82.9% |
| Cn1ccnc1C1(O)CC2CCC(C1)N2C(=O)c1ccc(Cl)cc1 (stereo not drawn) [CBK284087] | 94.2% |
| CNC(=O)c1cccc(NS(=O)(=O)c2sc3ccc(Cl)cc3c2C)c1 [CBK160383] | 89.3% |
| Cc1ccccc1OCC(=O)NN1CCN(C)CC1 [CBK265783C] | 89% |
| Cc1cc2c(cc1C)OC1(C=C2)CCN(C(=O)N2CCOCC2)CC1 [CBK285314] | 94.4% |
| C=CCN1C(=O)C2(CC(=O)N(CCC3CCCCC3)C2=O)c2ccccc21 (stereo not drawn) [CBK075160] | 107% |
| O=C(NCc1ccccc1)c1ccno1 [CBK200197] | 86.9% |
| CCOC(=O)C1(Cc2cc(-c3cccc(F)c3)no2)CCNCC1 [CBK284881] | 89.4% |
| C(=C\c1nccnc1OCCOc1ccccc1)/c1ccccc1 [CBK106885] | 91.6% |
| CS(=O)(=O)NC1CCN(c2nc(C(F)(F)F)nc3ccsc23)CC1 [CBK304592] | 109% |
| O=C(CSc1ncnc2c1oc1ccccc12)NCc1ccccc1 [CBK287397] | 101% |
| OCCCCn1c(-c2cccnc2)n[nH]c1=S [CBK288365] | 88.6% |
| COc1ccc(-n2c(C)c(C#N)c3cc(Br)c(O)c(Br)c32)cc1 [CBK101113] | 91.6% |
| O=c1[nH]c(=O)c2cc(S(=O)(=O)Nc3ccc(N4CCCCCC4)cc3)ccc2[nH]1 [CBK286361] | 81.4% |
| COc1cc2c(cc1NC(=O)c1cc(-c3cccnc3)nc3ccc(C)cc13)oc1ccccc12 [CBK267722] | 92.1% |
| COc1cccc(NC(=O)c2ccnc(Cl)c2)c1 [CBK174661] | 104% |
| CCOC(=O)c1sc2ccc(NC(C)=O)cc2c1C [CBK021052] | 76.8% |
| COc1ccc(Br)c(C(CO)N(C)C(=O)CC#N)c1 (stereo not drawn) [CBK304240] | 88% |
| Cc1n[nH]c(C)c1CNC(=O)C1(c2ccccc2F)CC1 [CBK283156] | 96.4% |
